The text below walks through data of US12622895B2, “Anti-neurodegenerative combinations and use for treatment of neurodegenerative diseases” (ALTO NEUROSCIENCE, INC., priority 2018, dated 2026).

Where two headings read alike, the source gives them in different places.

For one data set, the system named is mouse PD model. The settings on record: cited from earlier work.
In data set [1] the test system is human neuroblastoma SH-SY5Y cells. The settings on record: cited from earlier work.
For the next data set, the system named is subjects. The following applies: in vivo.
The next data set addresses alpha-synuclein (Homo sapiens, UniProt P37840). The settings on record: cited from earlier work.
In another data set the test system is Parkinsonian patient. The following applies: one patient, cited from earlier work.
A further data set concerns PD patients. The following applies: doses approved for the motor symptoms of PD; 535 PD patients; cited from earlier work.
Data set [2] deals with patients. The following applies: 5 mg/day of pramipexole, cited from earlier work.
The test system of data set [3] is patients. The settings on record: in vivo; cited from earlier work.
Data set [4] deals with human wild-type alpha-synuclein (Homo sapiens, UniProt P37840). The settings on record: by H2O2 plus cytochrome c; cited from earlier work.
Data set [5] has as its system α-synuclein in peripheral blood exosomes. The following applies: PD patients, approved therapeutic doses; cited from earlier work.
A further data set has as its system rodent. The settings on record: fluoxetine added to pramipexole; cited from earlier work.
Another data set has as its system rodents. The settings on record: large doses, acute systemic administration; cited from earlier work.
In another data set the test system is Caenorhabditis elegans. The following applies: C. elegans; cited from earlier work.
A further data set concerns 6-OHDA induced damage. The following applies: toxin-induced model of PD; cited from earlier work.
For another data set, the system named is MPTP induced damage. The following applies: toxin-induced model of PD; cited from earlier work.
The subject of another data set is animals. The settings on record: cited from earlier work.
The next data set has as its system brain cell systems. The settings on record: cited from earlier work.
Data set [6] deals with patients with secondary progressive multiple sclerosis. The settings on record: high-dose, 140 patients, cited from earlier work.
For the next data set, the system named is MPTP-treated mice. The following applies: 20 mg/kg; cited from earlier work.
For the next data set, the system named is patients with PD. The settings on record: 25 mg-50 mg, alone or with levodopa; cited from earlier work.
The test system of data set [7] is mice that received 6-hydroxydopamine. The settings on record: injection, 30 mg/kg; cited from earlier work.
The next data set deals with Engrailed mutant mice. The following applies: cited from earlier work.
Data set [8] has as its system rat corticostriatal slices. The settings on record: 0.3, 1, 3 and 10 μM; cited from earlier work.
The subject of data set [9] is A53T α-synuclein-induced neurodegeneration. The settings on record: cited from earlier work.

As to `CCCN[C@H]1CCc2nc(N)sc2C1` [Pramipexole, (S)-6-propylamino-4,5,6,7-tetrahydro-1,3-benzothiazole-2-amine], the “toxic effects of rotenone on dopaminergic neurons” value in the data set on mouse PD model (mouse PD model) is given as “inhibits the toxic effects of rotenone on dopaminergic neurons”. Further, in the data set on mouse PD model (rotenone mouse PD model), the immunoreactivity for alpha-synuclein entry was “reducing immunoreactivity for alpha-synuclein”. Further, in data set [1], the aggregation of alpha-synuclein result is listed as “inhibit the aggregation of alpha-synuclein”. For the same molecule, the “first intolerable dose reached” value in the data set on subjects (human) is on record as “All subjects reached FID-1”. Also, the dose limiting toxicity entry with subjects is “gastro-intestinal adverse events”. The “oligomerization (and aggregation) of alpha-synuclein in vitro” value on alpha-synuclein is given as “diminishes synuclein oligomer formation”. In the data set on Parkinsonian patient (extended-release formulation, pramipexole 4.5 mg/day with levodopa, entcapone, selegiline and zonisamide), the hallucinations entry is reported as “induce hallucinations”. Further, the hallucinations entry in the data set with Parkinsonian patient (immediate release formulation, same combination) was “not”. Moreover, the “neuroprotective (disease modifying) activity” value with PD patients is reported as “failed to evidence neuroprotective (i.e., disease modifying) activity”. For the same molecule, in the data set on patients [2], the “nausea, patients” value is given as 76% and the “vomiting, patients” value is reported as 39%. Further, in the data set with patients [2] (presumably intolerable GI adverse events), the “patients not able to complete the study” value is reported as 36%. Besides, in the data set with patients [3], the “side effects of the approved doses, often dose-limiting” value is “nausea, vomiting, somnolence, confusion, postural hypotension, and hallucinations as well as gastrointestinal disturbances”. Also, in data set [4], the “in vitro oligomerization of human wild-type alpha-synuclein” value is recorded as “decreases”. Moreover, the “magnitude of the effect on alpha-synuclein expression” value in data set [5] is “small”.

Turning to `CNCCC(Oc1ccc(C(F)(F)F)cc1)c1ccccc1` (stereo not drawn) [fluoxetine, 1-methylamino-3-phenyl-3-[4-(trifluoromethyl)phenoxy]propane], the “activity of pramipexole in the forced swimming test” value with rodent is listed as “enhance the activity of pramipexole”. Besides, the “extracellular concentrations of norepinephrine and dopamine” value with rodents is “significant increase”. Moreover, in the data set on Caenorhabditis elegans, the amyloid-β oligomers entry is reported as “reducing amyloid-β oligomers”, the amyloid-β-induced paralysis entry was “significantly delay”, the life span entry is on record as “extend life span” and the thermal stress resistance result is recorded as “increase thermal stress resistance”. In the data set with 6-OHDA induced damage, the 6-OHDA induced damage result is recorded as “protect against”. For the same molecule, the MPTP induced damage entry in the data set on MPTP induced damage is listed as “protect against”.

For the molecule `CCC(C)(C)C(=O)O[C@H]1C[C@@H](C)C=C2C=C[C@H](C)[C@H](CC[C@@H]3C[C@@H](O)CC(=O)O3)[C@H]21` [simvastatin, (1S,3R,7S,8S,8aR)-8-{2-[(2R,4R)-4-hydroxy-6-oxotetrahydro-2H-pyran-2-yl]ethyl}-3,7-dimethyl-1,2,3,7,8,8a-hexahydronaphthalen-1-yl 2,2-dimethylbutanoate], the “consequences of dopaminergic neurotoxin MPTP” value in the data set with animals is on record as “protect against the deleterious consequences of dopaminergic neurotoxin MPTP”. Besides, in the data set with brain cell systems (6-OHDA-lesioned cell model (Xu et al. 2013)), the dopaminergic neurodegeneration entry is “robust neuroprotection against dopaminergic neurodegeneration”. In addition, the “consequences of the dopaminergic neurotoxin 6-OHDA” value in the data set with brain cell systems (brain cell systems) is on record as “protect against the deleterious consequences of the dopaminergic neurotoxin 6-hydroxydopamine”. Further, in [6], the tolerability and safety result was “well tolerated and safe”. In addition, the “annualised rate of whole-brain atrophy” value in data set [6] (versus placebo) is “reduced the annualised rate of whole-brain atrophy compared with placebo”.

Turning to `NS(=O)(=O)Cc1noc2ccccc12` [zonisamide, benzo[d]isoxazol-3-ylmethanesulfonamide], in the data set on MPTP-treated mice, the “loss of nigral TH-positive neurons” value is listed as “reduced the loss of nigral TH-positive neurons” and the striatal dopamine depletion entry is reported as “attenuating the associated striatal dopamine depletion”. Also, in the data set with patients with PD, the motor symptoms result is listed as “improve motor symptoms”. In addition, the “loss of nigral dopamine neurons” value in data set [7] is listed as “prevented the loss of nigral dopamine neurons”. Further, the “oligomerization (and aggregation) of alpha-synuclein in vitro” value at alpha-synuclein was “inhibits the in vitro oligomerization and aggregation of alpha-synuclein”. Further, in the data set on Engrailed mutant mice (chronic administration, versus saline), the “survival of nigrostriatal dopaminergic neurons, striatal terminals and motor function” value is “improved the survival of nigrostriatal dopaminergic neurons as well as their striatal dopaminergic terminals and motor function”. The “brain-derived neurotrophic factor content in striatum and ventral midbrain” value in the data set on Engrailed mutant mice (versus saline-treated controls) is “increased”. In data set [8], the “rotenone-induced toxicity (loss of corticostriatal field potential amplitude)” value is “significantly reduced the rotenone-induced toxicity”. Moreover, the “duration of the effect” value in [9] (after transgene injection) was “lasted at least eight weeks”. Besides, the “survival of nigrostriatal dopamine neurons” value in data set [9] (oral, 40 mg/kg/day) is given as “no impact”. Also, in data set [9] (oral, 40 mg/kg/day, four weeks after injection of the viral vector, versus control group), the pace of degeneration entry is on record as “significantly delayed the pace of degeneration”.
